Results taken from patent US8629132B2, “Kinase inhibitors” (Genosco, priority 2009, dated 2014).

Legend:
PIM1 = molecular target: T1, PIM1 (Homo sapiens, UniProt P11309); assay: Kinase inhibition assay: PIM1; type: biochemical; conditions: at 1 μM concentration
T1 construct: Purified full-length human SYK, ZAP70, PIM1, PYK2; purchased Carna Biosciences
Protocol: Compounds of the present invention were tested for their capacity to inhibit a kinase panel which includes, but are not limited to, spleen tyrosine kinase (SYK), zeta-chain-associated protein kinase 70 (ZAP70), PTK2B protein tyrosine kinase 2 (PYK2), focal adhesion kinase (FAK), provirus integration of maloney kinase 1 (PIM1), rearranged during transfection kinase (RET), Fms-like tyrosine kinase 3 (FLT3), Janus kinase 2 (JAK2), and leucine-rich repeat kinase 2 (LRRK2).
Inhibition of SYK, ZAP70, PYK2, FAK, PIM1, RET, FLT3, JAK2 and LRRK2 Kinase Activity
Compounds of the invention were initially diluted to 10 mM in 100% DMSO (CALBIOCHEM™) for storage and made into kinase buffer solution to create a compound concentration ranging from 1 uM and 10 uM. Serial dilutions of compounds of the invention were dispensed into a 96-well plate (GREINER BIOSCIENCES™) at 6 μL each. Purified full-length human SYK, ZAP70, PIM1, PYK2 and truncated human FAK, RET, FLT3, JAK2, and LRRK2 (CARNA BIOSCIENCES™) were diluted in kinase buffer and added to the compound solutions and pre-incubated for 30 minutes at room temperature (1 hour for PYK2). […] The reaction mixture was incubated for 1 hour (2 hours for PYK2). Following the incubation, the stop solution made with EDTA, water, and Lance detection buffer ([…]™) was added (12μL each) to stop phosphorylation. […] Substrate phosphorylation was a function of the 665 nm emission measured following the addition of the detection solution and 50 minutes of incubation. The IC50 value of test compound was calculated at Gradpad Prism 5 unless specified otherwise.

ABL1(T315I) = molecular target: T2, ABL1(T315I) (Homo sapiens, UniProt P00519, T315I); assay: In vitro kinase inhibition profile (Ambit Biosciences); type: binding; conditions: reported as percent control, lower numbers indicate stronger activities
T2 construct: purchased Ambit Biosciences
Protocol: (§1) Up to 518 different kinases have been identified in humans. To determine the scope of inhibitory effects of a representative compound of Formula (I) on known kinases, Compound 82 was tested against 104 commercially available kinases (Ambit Biosciences™). 104 kinases included ABL1(E255K)-phosphorylated, ABL1(T315I)-phosphorylated, ABL1-phosphorylated, ACVR1B, ADCK3, AKT1, AKT2, ALK, AURKA, AURKB, AXL, BMPR2, BRAF, BRAF(V600E), BTK, CDK11, CDK2, CDK3, CDK7, CDK9, CHEK1, CSF1R, CSNK1D, CSNK1G2, DCAMKL1, DYRK1B, EGFR, EGFR(L858R), EPHA2, ERBB2, ERBB4, ERK1, FAK, FGFR2, FGFR3, FLT1, FLT3, FLT4, GSK3B, IGF1R, IKK-α, IKK-β, INSR, JAK2(JH1domain-catalytic), JAK3 (JH1 domain-catalytic), JNK 1, JNK2, JNK3, KIT, KIT(D816V), KIT(V559D,T6701), LKB1, LRRK2, LRRK2(G2019S), MAP3K4, MAPKAPK2, MARKS, MEK1, MEK2, MET, MKNK1, MKNK2, MLK1, MTOR, p38-alpha, p38-beta, PAK1, PAK2, PAK-4, PCTK1, PDGFRA, PDGFRB, PDPK1, PIK3C2B, PIK3CA, PIK3CG, PIM1, PIM2, PIM3, PKAC-alpha, PLK1, PLK3, PLK4, PRKCE, PYK2, RAF1, RET, R10K2, ROCK2, RSK2, SNARK, SRC, SRPK3, SYK, TAK1, TGFBR1, TIE2, TRKA, TSSK1B, TYK2(JH1domain-catalytic), ULK2, VEGFR2, YANK3 and ZAP70.
(§2) Inhibition activity of Compound 82 was reported as percent control where lower numbers indicate stronger activities.

KIT(D816V) = molecular target: T3, KIT(D816V) (Homo sapiens, UniProt P10721, D816V); assay: as above; type: binding; conditions: reported as percent control, lower numbers indicate stronger activities
T3 construct: purchased Ambit Biosciences
T3 sequence (P10721 26-976 D816V): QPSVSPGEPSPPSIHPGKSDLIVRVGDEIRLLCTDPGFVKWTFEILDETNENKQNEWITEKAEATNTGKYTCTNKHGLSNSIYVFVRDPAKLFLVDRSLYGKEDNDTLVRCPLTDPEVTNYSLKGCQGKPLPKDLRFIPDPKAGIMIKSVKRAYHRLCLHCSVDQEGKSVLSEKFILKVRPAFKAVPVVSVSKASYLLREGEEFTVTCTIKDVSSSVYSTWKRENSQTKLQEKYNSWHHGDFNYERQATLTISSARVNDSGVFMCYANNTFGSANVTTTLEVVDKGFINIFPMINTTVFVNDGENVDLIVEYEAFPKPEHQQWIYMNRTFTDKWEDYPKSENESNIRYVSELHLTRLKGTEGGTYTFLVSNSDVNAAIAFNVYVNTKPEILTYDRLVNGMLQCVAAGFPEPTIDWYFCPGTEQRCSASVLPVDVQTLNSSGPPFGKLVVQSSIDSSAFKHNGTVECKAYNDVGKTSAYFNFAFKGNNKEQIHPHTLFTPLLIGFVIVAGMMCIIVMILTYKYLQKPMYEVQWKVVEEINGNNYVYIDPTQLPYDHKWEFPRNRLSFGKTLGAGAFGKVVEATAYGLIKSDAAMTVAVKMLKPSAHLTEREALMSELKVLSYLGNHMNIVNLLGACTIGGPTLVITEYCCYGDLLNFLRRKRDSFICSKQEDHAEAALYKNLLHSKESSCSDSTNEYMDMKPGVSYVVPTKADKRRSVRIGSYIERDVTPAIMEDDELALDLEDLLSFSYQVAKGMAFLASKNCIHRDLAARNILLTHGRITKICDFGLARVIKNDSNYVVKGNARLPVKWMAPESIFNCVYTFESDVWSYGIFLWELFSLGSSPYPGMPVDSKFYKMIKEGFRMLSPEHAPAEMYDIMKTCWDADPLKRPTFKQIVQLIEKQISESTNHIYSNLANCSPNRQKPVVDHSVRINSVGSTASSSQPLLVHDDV
Protocol: as §1, §2

KIT(V559D,T6701) = molecular target: T4, KIT(V559D,T6701) (Homo sapiens, UniProt P10721, T670I/V559D); assay: as above; type: binding; conditions: reported as percent control, lower numbers indicate stronger activities
T4 construct: purchased Ambit Biosciences
T4 sequence (P10721 26-976 V559D/T670I): as the sequence (P10721 26-976 D816V) above, with V534D, T645I, V791D counted along it
Protocol: as §1, §2

MKNK2 = molecular target: T5, MKNK2 (Homo sapiens, UniProt Q9HBH9); assay: as above; type: binding; conditions: reported as percent control, lower numbers indicate stronger activities
T5 construct: purchased Ambit Biosciences
T5 sequence (Q9HBH9 whole entry): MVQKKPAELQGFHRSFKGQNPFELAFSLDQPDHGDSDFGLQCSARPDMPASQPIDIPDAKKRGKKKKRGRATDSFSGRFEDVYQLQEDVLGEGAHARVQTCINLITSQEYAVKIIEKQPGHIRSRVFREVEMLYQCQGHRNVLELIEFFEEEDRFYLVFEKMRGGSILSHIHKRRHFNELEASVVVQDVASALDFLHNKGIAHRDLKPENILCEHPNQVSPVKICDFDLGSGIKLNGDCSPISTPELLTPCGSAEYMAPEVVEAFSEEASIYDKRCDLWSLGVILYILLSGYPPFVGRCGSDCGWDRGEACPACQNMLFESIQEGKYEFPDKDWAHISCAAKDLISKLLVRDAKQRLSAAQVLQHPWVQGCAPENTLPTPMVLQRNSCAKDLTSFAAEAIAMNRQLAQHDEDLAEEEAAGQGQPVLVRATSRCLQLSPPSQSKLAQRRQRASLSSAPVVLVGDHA
Protocol: as §1, §2

PDGFRB = molecular target: T6, PDGFRB (Homo sapiens, UniProt P09619); assay: as above; type: binding; conditions: reported as percent control, lower numbers indicate stronger activities
T6 construct: purchased Ambit Biosciences
T6 sequence (P09619 33-1106): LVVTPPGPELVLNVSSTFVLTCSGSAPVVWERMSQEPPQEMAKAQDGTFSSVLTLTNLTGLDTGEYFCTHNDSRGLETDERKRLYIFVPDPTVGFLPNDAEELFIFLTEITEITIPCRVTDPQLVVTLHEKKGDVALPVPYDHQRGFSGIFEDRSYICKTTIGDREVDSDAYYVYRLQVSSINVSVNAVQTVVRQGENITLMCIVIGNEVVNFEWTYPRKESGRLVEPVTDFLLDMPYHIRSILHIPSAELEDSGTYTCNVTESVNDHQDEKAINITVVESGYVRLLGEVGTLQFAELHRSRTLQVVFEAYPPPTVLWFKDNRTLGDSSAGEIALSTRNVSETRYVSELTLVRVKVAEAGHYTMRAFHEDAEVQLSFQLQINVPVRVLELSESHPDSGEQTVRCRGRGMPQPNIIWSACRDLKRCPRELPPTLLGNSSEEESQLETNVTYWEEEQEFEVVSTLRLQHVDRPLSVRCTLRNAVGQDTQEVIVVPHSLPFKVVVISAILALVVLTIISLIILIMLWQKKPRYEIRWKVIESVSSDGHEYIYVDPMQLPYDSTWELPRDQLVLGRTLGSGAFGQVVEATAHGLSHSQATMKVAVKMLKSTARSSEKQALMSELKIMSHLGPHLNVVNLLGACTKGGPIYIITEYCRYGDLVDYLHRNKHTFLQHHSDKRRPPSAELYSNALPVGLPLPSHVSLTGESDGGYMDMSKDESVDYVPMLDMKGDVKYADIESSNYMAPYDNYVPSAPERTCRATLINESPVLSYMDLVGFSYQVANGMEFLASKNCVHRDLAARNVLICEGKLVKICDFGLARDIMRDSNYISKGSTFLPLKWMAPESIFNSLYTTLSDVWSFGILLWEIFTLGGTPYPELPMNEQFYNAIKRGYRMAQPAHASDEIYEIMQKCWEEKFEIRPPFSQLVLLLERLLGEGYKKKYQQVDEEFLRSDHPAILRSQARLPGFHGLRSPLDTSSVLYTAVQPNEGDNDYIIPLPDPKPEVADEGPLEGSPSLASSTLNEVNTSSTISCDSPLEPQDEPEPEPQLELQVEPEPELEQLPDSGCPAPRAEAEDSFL
Protocol: as §1, §2

SNARK = molecular target: T7, SNARK (Homo sapiens, UniProt Q9H093); assay: as above; type: binding; conditions: reported as percent control, lower numbers indicate stronger activities
T7 construct: purchased Ambit Biosciences
T7 sequence (Q9H093 whole entry): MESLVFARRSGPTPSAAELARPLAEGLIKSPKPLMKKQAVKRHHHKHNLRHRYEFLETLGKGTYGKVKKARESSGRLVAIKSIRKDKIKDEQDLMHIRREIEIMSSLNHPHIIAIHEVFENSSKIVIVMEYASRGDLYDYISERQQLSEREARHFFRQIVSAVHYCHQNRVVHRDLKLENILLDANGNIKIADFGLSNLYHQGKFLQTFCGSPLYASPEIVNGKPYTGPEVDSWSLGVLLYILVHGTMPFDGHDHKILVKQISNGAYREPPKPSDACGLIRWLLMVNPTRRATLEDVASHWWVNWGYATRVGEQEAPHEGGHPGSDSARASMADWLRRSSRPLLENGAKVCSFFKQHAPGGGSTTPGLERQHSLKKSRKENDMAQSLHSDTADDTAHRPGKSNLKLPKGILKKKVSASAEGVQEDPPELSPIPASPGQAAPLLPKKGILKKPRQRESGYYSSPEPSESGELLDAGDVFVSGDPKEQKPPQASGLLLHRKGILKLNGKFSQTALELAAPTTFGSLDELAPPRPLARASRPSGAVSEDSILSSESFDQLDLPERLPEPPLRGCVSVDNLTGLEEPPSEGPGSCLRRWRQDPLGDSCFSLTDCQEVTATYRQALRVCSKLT
Protocol: as §1, §2

SRPK3 = molecular target: T8, SRPK3 (Homo sapiens, UniProt Q9UPE1); assay: as above; type: binding; conditions: reported as percent control, lower numbers indicate stronger activities
T8 construct: purchased Ambit Biosciences
T8 sequence (Q9UPE1 whole entry): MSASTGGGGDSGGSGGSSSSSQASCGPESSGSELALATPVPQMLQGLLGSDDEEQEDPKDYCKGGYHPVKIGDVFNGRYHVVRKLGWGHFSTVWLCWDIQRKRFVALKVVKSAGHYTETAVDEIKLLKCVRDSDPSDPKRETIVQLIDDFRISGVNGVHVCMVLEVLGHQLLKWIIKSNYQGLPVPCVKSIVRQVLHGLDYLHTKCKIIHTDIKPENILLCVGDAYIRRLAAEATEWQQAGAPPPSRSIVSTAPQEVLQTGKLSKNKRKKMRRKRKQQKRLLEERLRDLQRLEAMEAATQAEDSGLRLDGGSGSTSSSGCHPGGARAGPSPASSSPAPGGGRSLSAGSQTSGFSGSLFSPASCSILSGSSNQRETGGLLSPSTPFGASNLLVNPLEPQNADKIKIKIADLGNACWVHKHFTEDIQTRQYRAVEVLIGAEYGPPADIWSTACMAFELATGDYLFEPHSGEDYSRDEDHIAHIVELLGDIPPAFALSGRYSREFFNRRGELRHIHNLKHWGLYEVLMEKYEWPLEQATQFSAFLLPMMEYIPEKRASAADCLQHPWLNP
Protocol: as §1, §2

SYK = molecular target: T9, SYK (Homo sapiens, UniProt P43405); assay: as above; type: binding; conditions: reported as percent control, lower numbers indicate stronger activities
T9 construct: Purified full-length human SYK, ZAP70, PIM1, PYK2; purchased Carna Biosciences
Protocol: as §1, §2

TAK1 = molecular target: T10, TAK1 (Homo sapiens, UniProt O43318); assay: as above; type: binding; conditions: reported as percent control, lower numbers indicate stronger activities
T10 construct: purchased Ambit Biosciences
T10 sequence (O43318 whole entry): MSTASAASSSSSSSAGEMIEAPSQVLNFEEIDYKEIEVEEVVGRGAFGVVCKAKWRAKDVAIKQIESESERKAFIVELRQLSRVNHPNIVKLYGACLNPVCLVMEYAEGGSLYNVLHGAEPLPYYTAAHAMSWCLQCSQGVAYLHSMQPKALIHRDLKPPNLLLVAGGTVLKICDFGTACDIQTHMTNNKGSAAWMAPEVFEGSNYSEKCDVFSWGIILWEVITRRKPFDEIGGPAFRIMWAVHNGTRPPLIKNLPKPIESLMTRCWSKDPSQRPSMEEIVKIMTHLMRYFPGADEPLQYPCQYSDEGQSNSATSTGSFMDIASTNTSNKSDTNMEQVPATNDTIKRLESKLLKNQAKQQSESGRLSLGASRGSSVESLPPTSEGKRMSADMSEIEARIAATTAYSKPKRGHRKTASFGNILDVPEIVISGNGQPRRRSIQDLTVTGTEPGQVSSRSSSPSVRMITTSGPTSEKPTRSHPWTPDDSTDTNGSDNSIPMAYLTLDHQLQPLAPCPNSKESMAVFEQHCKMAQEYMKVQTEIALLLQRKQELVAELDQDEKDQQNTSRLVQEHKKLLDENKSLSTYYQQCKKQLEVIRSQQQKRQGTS
Protocol: as §1, §2

TYK2 = molecular target: T11, TYK2 (Homo sapiens, UniProt P29597); assay: as above; type: binding; conditions: reported as percent control, lower numbers indicate stronger activities
T11 construct: TYK2(JH1domain-catalytic); purchased Ambit Biosciences
T11 sequence (P29597 897-1176 limits assumed): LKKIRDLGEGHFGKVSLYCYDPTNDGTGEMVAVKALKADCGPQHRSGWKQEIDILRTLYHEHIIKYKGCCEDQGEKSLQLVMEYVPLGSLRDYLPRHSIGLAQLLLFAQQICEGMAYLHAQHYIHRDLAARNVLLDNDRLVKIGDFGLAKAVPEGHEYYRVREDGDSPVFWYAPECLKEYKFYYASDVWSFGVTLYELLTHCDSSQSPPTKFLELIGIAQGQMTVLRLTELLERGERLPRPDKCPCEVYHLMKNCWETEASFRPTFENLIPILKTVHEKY
Protocol: as §1, §2

ZAP70 = molecular target: T12, ZAP70 (Homo sapiens, UniProt P43403); assay: as above; type: binding; conditions: reported as percent control, lower numbers indicate stronger activities
T12 construct: Purified full-length human SYK, ZAP70, PIM1, PYK2; purchased Carna Biosciences
T12 sequence (P43403 1-619): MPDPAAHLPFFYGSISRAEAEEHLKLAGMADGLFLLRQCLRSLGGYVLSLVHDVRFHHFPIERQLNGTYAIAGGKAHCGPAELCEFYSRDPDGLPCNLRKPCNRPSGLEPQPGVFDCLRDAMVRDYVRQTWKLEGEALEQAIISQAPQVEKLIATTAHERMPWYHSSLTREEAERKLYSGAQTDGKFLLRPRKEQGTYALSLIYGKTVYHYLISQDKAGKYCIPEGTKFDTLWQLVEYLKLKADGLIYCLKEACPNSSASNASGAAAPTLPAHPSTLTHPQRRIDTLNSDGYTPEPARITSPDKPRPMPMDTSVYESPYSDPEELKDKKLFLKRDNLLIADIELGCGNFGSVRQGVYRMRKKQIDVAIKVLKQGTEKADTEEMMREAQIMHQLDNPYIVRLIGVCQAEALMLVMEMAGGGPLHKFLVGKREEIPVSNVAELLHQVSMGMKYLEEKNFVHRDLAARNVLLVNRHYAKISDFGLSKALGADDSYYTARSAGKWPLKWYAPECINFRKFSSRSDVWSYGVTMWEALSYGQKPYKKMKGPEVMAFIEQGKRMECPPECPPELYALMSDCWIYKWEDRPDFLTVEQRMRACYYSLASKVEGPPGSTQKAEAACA
Protocol: as §1, §2

T1 sequence (P11309 whole entry): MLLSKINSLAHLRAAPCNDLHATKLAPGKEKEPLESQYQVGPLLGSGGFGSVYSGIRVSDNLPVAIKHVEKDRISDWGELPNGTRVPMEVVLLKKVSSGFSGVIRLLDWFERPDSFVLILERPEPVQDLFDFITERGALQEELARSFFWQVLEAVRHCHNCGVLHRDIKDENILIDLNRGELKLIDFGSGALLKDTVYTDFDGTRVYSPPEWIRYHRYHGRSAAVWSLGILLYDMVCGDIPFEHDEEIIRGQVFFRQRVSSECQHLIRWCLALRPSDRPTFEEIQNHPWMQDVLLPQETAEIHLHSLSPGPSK

| SMILES | inhibition at 1 µM (PIM1) [%] | % of control ABL1(T315I) (ABL1(T315I)) [%] | % of control (KIT(D816V)) [%] | Percent of control (KIT(V559D,T6701)) [%] | % of control binding MKNK2 (MKNK2) [%] | % of control PDGFRB (PDGFRB) [%] | % of control SNARK (SNARK) [%] | % of control SRPK3 binding (SRPK3) [%] | % of control SYK (SYK) [%] | % of control remaining TAK1 binding (TAK1) [%] | % of control (TYK2) [%] | % of control ZAP70 binding (lower = stronger) (ZAP70) [%] |
| --- | --- | --- | --- | --- | --- | --- | --- | --- | --- | --- | --- | --- |
| COc1cc(Nc2ncc(C)c(-n3cc(C)c(CO)c3)n2)cc(OC)c1OC [Compound 21, (4-methyl-1-(5-methyl-2-(3,4,5-trimethoxyphenylamino)pyrimidin-4-yl)-1H-pyrrol-3-yl)methanol] | 71.2 |  |  |  |  |  |  |  |  |  |  |  |
| Cc1cc(C)cc(Nc2ncc(F)c(-n3cc(C)c(CN4CC[C@@H](O)C4)c3)n2)c1 [Compound 82, (R)-1-((1-(2-(3,5-dimethylphenyl-amino)-5-fluoropyrimidin-4-yl)-4-methyl-1H-pyrrol-3-yl)methyl) pyrrolidin-3-ol] |  | 35 | 0.45 | 28 | 34 | 1.8 | 4.2 | 25 | 1 | 22 | 21 | 34 |
